Measurements published in patent US6982283B2, “Method for treating drug-induced constipation” (Sucampo AG, priority 2001, dated 2006).
Structures can show the parent of a compound that is named as a salt. Marks after values point to notes of the source that are not given here.

How the values were obtained:
Format in all cases: in vivo
Male ICR mice [1] = assay: Antagonism to imipramine-induced constipation: carbon marker in the caecum
Method: Male ICR mice were fasted overnight in wire-bottomed cages to prevent coprophagia, and 10 mice were used for each group. Imipramine hydrochloride (Wako Pure Chemical Industries, Ltd., Osaka, Japan) at 60 mg/kg was injected intraperitoneally to the animals. Immediately after the imipramine-injection, 0.1 mL of carbon marker (10% carbon powder suspension in 5% gum Arabic) and vehicle (physiological saline solution containing 0.01% polysorbate 80 and 0.5% ethanol) or test substance (13,14-dihydro-15-keto-16,16-difluoro-PGE1) in an administration volume of 5 mL/kg were orally administered. A normal control group received carbon marker and vehicle in the above volume orally without the imipramine-injection. One hundred and fifty minutes after the administration of carbon marker, animals were sacrificed by cervical dislocation, and examined the caecum for the presence of carbon marker. It was judged as a positive response when carbon marker was found in the caecum (positive scores).
The effect to the imipramine-induced constipation was evaluated on the cathartic (sennoside) clinically used for the treatment of the constipation in patients. Preparation and dose levels of sennoside were the same as described in example 2. The experimental procedure was the same as described in example 4.

Male ICR mice [2] = assay: Antagonism to morphine-induced constipation: graphite marker in the caecum; details: for Effect on morphine-induced constipation: at the clinical daily dosage and at 10 times of the clinical daily dosage
Male ICR mice [3] = assay: Effect on analgesic action of morphine: tail-pinch response time
Method: Male ICR mice were fasted overnight in wire-bottomed cages to prevent coprophagia. The tail of the animal was pinched with clamp forceps, and the response time from the tail-pinch to fierce striking, biting or crying was measured. 18 mice whose response time of 2 second or shorter were used as test animals. […] Immediately after the morphine-injection, vehicle (physiological saline containing 0.01% polysorbate 80 and 0.5% ethanol) or 1, 10, or 100 μg/kg test substance (13,14-dihydro-15-keto-16,16-difluoro-PGE1) dissolved in the vehicle was administered orally in an administration volume of 5 mL/kg. The animals of normal control group received vehicle orally in the above volume without morphine-injection.
The response time of each animal following tail-pinch was measured 30, 60, 90, 120 and 150 minutes after the administration. If a mouse took longer than 10 seconds to respond, measurement was stopped to avoid injuring the tail tissue, and the response time was recorded as 10 second.

[4] = imipramine 60 mg/kg i.p. + vehicle orally, Example 4, Table 5
[5] = imipramine 60 mg/kg i.p. + vehicle, Example 5, Table 6
[6] = morphine 5 mg/kg i.p. + sodium picosulfate 0.15 mg/kg, 150 min after graphite marker
[7] = morphine 5 mg/kg i.p. + sodium picosulfate 1.5 mg/kg, 150 min after graphite marker
[8] = imipramine 60 mg/kg i.p. + test substance 10 μg/kg orally, 150 min after carbon marker
[9] = imipramine 60 mg/kg i.p. + test substance 100 μg/kg orally, 150 min after carbon marker
[10] = morphine 5 mg/kg i.p. + sennoside 0.48 mg/kg, 150 min after graphite marker
[11] = morphine 5 mg/kg i.p. + sennoside 4.8 mg/kg, 150 min after graphite marker
[12] = imipramine 60 mg/kg i.p. + sennoside 0.48 μg/kg, 150 min after carbon marker
[13] = imipramine 60 mg/kg i.p. + sennoside 4.8 μg/kg, 150 min after carbon marker

In the case of `CN(C)CCCN1c2ccccc2CCc2ccccc21` [Imipramine, Imipramine hydrochloride], the “Number of animals with positive scores/Number of animals tested” value (Male ICR mice [1]; [4]) is reported as 1/10, the “Ratio of animals with positive scores” value (Male ICR mice [1]; [4]) is reported as 10% and the “Number of animals with positive scores/Number of animals tested” value (Male ICR mice [1]; [5]) is reported as 1/10. For the same molecule, the “Ratio of animals with positive scores” value (Male ICR mice [1]; [5]) was 10%.

For `CN1CC[C@]23c4c5ccc(O)c4O[C@H]2[C@@H](O)C=C[C@H]3[C@H]1C5.Cl` [Morphine, Morphine hydrochloride, reference compound], the “Number of animals with positive scores/Number of animals tested” value (Male ICR mice [2]; morphine 5 mg/kg i.p. + vehicle (0.5% tragacanth solution), Example 2, Table 2) was 2/10, the “Number of animals with positive scores/Number of animals tested” value (Male ICR mice [2]; morphine 5 mg/kg i.p. + vehicle (physiological saline), Example 2, Table 3) was 3/10 and the “Number of animals with positive scores/Number of animals tested” value (Male ICR mice [2]; morphine 5 mg/kg i.p. + vehicle (saline, 0.01% polysorbate 80, 0.5% ethanol) orally, Example 1, Table 1) was 3. For the same molecule, the “Number of animals with positive scores/Number of animals tested” value (Male ICR mice [2]; morphine 5 mg/kg i.p. + vehicle (saline, 0.01% polysorbate 80, 0.5% ethanol) orally, Example 1, Table 1, hydrochloride) was 3/15, the “Response time, mean ± S.E.” value (Male ICR mice [3]; morphine 5 mg/kg i.p. + vehicle orally, 30 min after administration) was 2.8 ± 0.6 s and the “Response time, mean ± S.E.” value (Male ICR mice [3]; morphine 5 mg/kg i.p. + vehicle orally, 60 min after administration) was 1.9 ± 0.3 s. The “Response time, mean ± S.E.” value (Male ICR mice [3]; morphine 5 mg/kg i.p. + vehicle orally, 90 min after administration) was 1.8 ± 0.4^+ sec, the “Response time, mean ± S.E.” value (Male ICR mice [3]; morphine 5 mg/kg i.p. + vehicle orally, 120 min after administration) was 1.4 ± 0.2 s and the “Response time, mean ± S.E.” value (Male ICR mice [3]; morphine 5 mg/kg i.p. + vehicle orally, 150 min after administration) was 1.2 ± 0.1 s. The “Response time, mean ± S.E.” value (Male ICR mice [3]; morphine 5 mg/kg i.p. + vehicle orally, before administration) was 1.0 ± 0.1 s.

In the case of `O=S(=O)(O)Oc1ccc(C(c2ccc(OS(=O)(=O)O)cc2)c2ccccn2)cc1` [sodium picosulfate, Sodium picosulfate], the “Effect on morphine-induced constipation” value (Male ICR mice [2]) is reported as “no effect”, the “Number of animals with positive scores/Number of animals tested” value (Male ICR mice [2]; [6]) is reported as 3/10 and the “Ratio of animals with positive scores” value (Male ICR mice [2]; [6]) is reported as 30%. The “Number of animals with positive scores/Number of animals tested” value (Male ICR mice [2]; [7]) was 4/10 and the “Ratio of animals with positive scores” value (Male ICR mice [2]; [7]) was 40%.

For `CCCCC(F)(F)C(=O)CCC1C(O)CC(=O)C1CCCCCCC(=O)O` (centres unmarked) [test substance, 13,14-dihydro-15-keto-16,16-difluoro-PGE1], the “Ratio of animals with positive scores” value (Male ICR mice [2]; morphine 5 mg/kg i.p. + test substance 1 μg/kg orally, 150 min after graphite marker) was 60%, the “Ratio of animals with positive scores” value (Male ICR mice [2]; morphine 5 mg/kg i.p. + test substance 10 μg/kg orally, 150 min after graphite marker) was 87% and the “Ratio of animals with positive scores” value (Male ICR mice [2]; morphine 5 mg/kg i.p. + test substance 100 μg/kg orally, 150 min after graphite marker) was 93%. For the same molecule, the “Antagonism of morphine-induced constipation compared with control (morphine+vehicle) group” value (Male ICR mice [2]; test substance 1, 10 or 100 μg/kg orally immediately after morphine) was “significantly antagonized”, the “Response time, mean ± S.E.” value (Male ICR mice [3]; morphine 5 mg/kg i.p. + test substance 1 μg/kg orally, 30 min after administration) was 3.2 ± 0.7 s and the “Response time, mean ± S.E.” value (Male ICR mice [3]; morphine 5 mg/kg i.p. + test substance 1 μg/kg orally, 60 min after administration) was 2.3 ± 0.6^+ sec. The “Response time, mean ± S.E.” value (Male ICR mice [3]; morphine 5 mg/kg i.p. + test substance 1 μg/kg orally, 90 min after administration) was 1.5 ± 0.2 s, the “Response time, mean ± S.E.” value (Male ICR mice [3]; morphine 5 mg/kg i.p. + test substance 1 μg/kg orally, 120 min after administration) was 1.3 ± 0.1 s and the “Response time, mean ± S.E.” value (Male ICR mice [3]; morphine 5 mg/kg i.p. + test substance 1 μg/kg orally, 150 min after administration) was 1.3 ± 0.1 s. The “Response time, mean ± S.E.” value (Male ICR mice [3]; morphine 5 mg/kg i.p. + test substance 1 μg/kg orally, before administration) was 1.0 ± 0.1 s, the “Response time, mean ± S.E.” value (Male ICR mice [3]; morphine 5 mg/kg i.p. + test substance 10 μg/kg orally, 30 min after administration) was 3.4 ± 0.5 s and the “Response time, mean ± S.E.” value (Male ICR mice [3]; morphine 5 mg/kg i.p. + test substance 10 μg/kg orally, 60 min after administration) was 1.8 ± 0.2 s. The “Response time, mean ± S.E.” value (Male ICR mice [3]; morphine 5 mg/kg i.p. + test substance 10 μg/kg orally, 90 min after administration) was 1.4 ± 0.1 s, the “Response time, mean ± S.E.” value (Male ICR mice [3]; morphine 5 mg/kg i.p. + test substance 10 μg/kg orally, 120 min after administration) was 1.3 ± 0.1 s and the “Response time, mean ± S.E.” value (Male ICR mice [3]; morphine 5 mg/kg i.p. + test substance 10 μg/kg orally, 150 min after administration) was 1.2 ± 0.1 s. The “Response time, mean ± S.E.” value (Male ICR mice [3]; morphine 5 mg/kg i.p. + test substance 10 μg/kg orally, before administration) was 1.0 ± 0.1 s, the “Response time, mean ± S.E.” value (Male ICR mice [3]; morphine 5 mg/kg i.p. + test substance 100 μg/kg orally, 30 min after administration) was 2.9 ± 0.6 s and the “Response time, mean ± S.E.” value (Male ICR mice [3]; morphine 5 mg/kg i.p. + test substance 100 μg/kg orally, 60 min after administration) was 1.8 ± 0.3 s. The “Response time, mean ± S.E.” value (Male ICR mice [3]; morphine 5 mg/kg i.p. + test substance 100 μg/kg orally, 90 min after administration) was 1.5 ± 0.1 s, the “Response time, mean ± S.E.” value (Male ICR mice [3]; morphine 5 mg/kg i.p. + test substance 100 μg/kg orally, 120 min after administration) was 1.2 ± 0.1 s and the “Response time, mean ± S.E.” value (Male ICR mice [3]; morphine 5 mg/kg i.p. + test substance 100 μg/kg orally, 150 min after administration) was 1.3 ± 0.1 s. For the same molecule, the “Response time, mean ± S.E.” value (Male ICR mice [3]; morphine 5 mg/kg i.p. + test substance 100 μg/kg orally, before administration) was 1.0 ± 0.1 s, the “Effect on the analgesic action of morphine” value (Male ICR mice [3]; test substance 1, 10 or 100 μg/kg orally, compared with morphine+vehicle group) was “did not affect” and the “Number of animals with positive scores/Number of animals tested” value (Male ICR mice [1]; [8]) was 3/10. For the same molecule, the “Ratio of animals with positive scores” value (Male ICR mice [1]; [8]) was 30%, the “Number of animals with positive scores/Number of animals tested” value (Male ICR mice [1]; [9]) was 7/10** and the “Ratio of animals with positive scores” value (Male ICR mice [1]; [9]) was 70%.

Sennoside was tested, and the “Effect on morphine-induced constipation” value (Male ICR mice [2]) was “no effect”, the “Number of animals with positive scores/Number of animals tested” value (Male ICR mice [2]; [10]) was 2/10 and the “Ratio of animals with positive scores” value (Male ICR mice [2]; [10]) was 20%. The “Number of animals with positive scores/Number of animals tested” value (Male ICR mice [2]; [11]) was 2/10, the “Ratio of animals with positive scores” value (Male ICR mice [2]; [11]) was 20% and the “Effect on the imipramine-induced constipation” value (Male ICR mice [1]; Example 5, results of Table 6) was “no effect”. For the same molecule, the “Number of animals with positive scores/Number of animals tested” value (Male ICR mice [1]; [12]) was 2/10, the “Ratio of animals with positive scores” value (Male ICR mice [1]; [12]) was 20% and the “Number of animals with positive scores/Number of animals tested” value (Male ICR mice [1]; [13]) was 2/10. For the same molecule, the “Ratio of animals with positive scores” value (Male ICR mice [1]; [13]) was 20%.
